PMC6332427, “Drug Discovery of Host CLK1 Inhibitors for Influenza Treatment” (Molecules, 2015)
Converted amounts (≈) assume the structure as drawn. “And” between values parts separate entries of the source, which are not always exact repeats. Identical values can stand only once. Like-named read-outs stand apart in the source and are kept apart here.

How the values were obtained:
[1] = biological target: T1, recombinant human CLK1 (Homo sapiens, UniProt P49759); test: CLK1 inhibitory assay (Kinase-Glo luminescent kinase assay, MBP substrate); assay type: biochemical
T1 construct: The primer of human full length CLK1 gene was as follows; made in house; host or cells: Sf9 insect cells (baculovirus, pFastBac1)
T1 sequence (P49759 whole entry): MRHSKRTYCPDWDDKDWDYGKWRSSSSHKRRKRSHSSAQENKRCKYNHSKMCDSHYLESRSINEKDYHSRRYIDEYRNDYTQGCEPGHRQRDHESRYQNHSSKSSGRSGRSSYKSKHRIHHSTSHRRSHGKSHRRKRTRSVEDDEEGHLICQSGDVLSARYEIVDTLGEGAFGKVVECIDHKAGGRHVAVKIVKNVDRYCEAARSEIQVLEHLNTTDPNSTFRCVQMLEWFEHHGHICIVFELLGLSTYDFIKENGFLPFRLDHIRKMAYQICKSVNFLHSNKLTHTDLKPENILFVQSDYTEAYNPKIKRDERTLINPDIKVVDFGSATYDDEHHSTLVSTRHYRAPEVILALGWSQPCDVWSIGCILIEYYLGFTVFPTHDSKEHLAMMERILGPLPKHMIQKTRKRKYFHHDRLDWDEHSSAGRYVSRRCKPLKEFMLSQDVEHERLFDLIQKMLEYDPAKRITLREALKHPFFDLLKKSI
Protocol: The optimal conditions were dependent on the largest change in luminescence when comparing kinase reaction wells with control wells.
The kinase assay in this study utilized appropriate concentration of recombinant purified protein CLK1 in the presence of MBP as the substrate, MgCl2, MnCl2, ATP in kinase buffer (10 mM Tris, 1 mM EGTA, 100 μM sodium orthovanadate, 10 μM p-nitrophenyl phosphate (PNP), pH7.4) in a reaction volume of 20 μL. The reaction system were incubated at 25 °C for appropriate time. The Kinase-Glo® Luminescent Kinase Assay Platform was used to measure kinase activity by quantitating the amount of ATP, the signals of which were recorded using PerkinElmer’s EnSpire Multilabel Plate Reader. All the above components were added to the plate by automatic dispenser (EDR-384S, BioTec, Tokyo, Japan). A series of parameters containing the amount of kinase (1.16–298 ng/mL), MBP (3.125–150 μg/mL), ATP (0.1–100 μM), Mg^2+ (0.01–100 mM), Mn^2+ (0.5–20 mM), the percentage of DMSO (0.03%–10%), reaction time and temperature were optimized respectively in order to get best performance. Z′ factor values was calculated as described.
The inhibition percentage of the compounds against CLK1 were calculated according to the formula: (1) inhibition%=[(RLUsample−RLUpositive)/(RLUnegative−RLUpositive)]×100% where the RLUsample, RLUpositive, RLUnegative are the measured RLU values with treatment of test compounds, the wells free of test compounds, and that of without kinase, respectively.

[2] = system: MDCK cells; test: Cytotoxicity assay in MDCK cells (MTT, 72 h); conditions: MDCK cells; for CC0 (maximal non-cytotoxic concentration): more than 90% cells viable
[3] = Cytotoxicity assay in MDCK cells (MTT, 72 h); conditions: dog
[4] = system: influenza virus A/PR/8/34 (H1N1); test: organism not typed; conditions: MDCK
[5] = system: influenza virus A/PR/8/34 (H1N1); test: in vitro; conditions: MDCK, H1N1
[6] = system: MDCK cells; conditions: dog, 72 h
[7] = in vitro; conditions: dog
[8] = system: influenza virus A/PR/8/34 (H1N1); test: microbe, parasite or virus in culture; conditions: read-out: EC50s in time-of-addition assays
[9] = system: influenza virus A/PR/8/34 (H1N1)
[10] = system: CLK1; conditions: cited from earlier work
[11] = Kinase-Glo assay, read-out: IC50 (converted)
[12] = 24 h, read-out: Simultaneous Treatment Assay EC50
[13] = read-out: Post-Treatment Assay EC50
[14] = read-out: Pre-Treatment Assay EC50
[15] = Post-Treatment Assay SI (selective index, CC50/EC50), post-treatment
[16] = Pre-Treatment Assay SI (selective index, CC50/EC50), pre-treatment
[17] = Simultaneous Treatment Assay SI (selective index, CC50/EC50), simultaneous treatment

Molecule	IC50 [1, 11]	CC0 (maximal non-cytotoxic concentration) ([2]; 72 h, MTT) [µg/mL]	EC50 [4, 12] [µg/mL]	EC50 [4, 13] [µg/mL]	EC50 [4, 14] [µg/mL]	selectivity ratio at 24 h [5, 15]	CC0 (maximal non-cytotoxic concentration) [6] [µg/mL]	CC50 at 72 h [7] [µg/mL]	IC50 ([1]; IC50, Kinase-Glo assay)	selectivity ratio at 24 h [5, 16]	selectivity ratio at 24 h [5, 17]	further results
O=c1cc(-c2ccc(O)c(O)c2)oc2cc(O)cc(O)c12 [J20725, Luteolin]	< 175 µM	10	> 10	5.74 ± 0.54 (≈ 20.1 µM)	> 10	4.33						concentration above which toxic effects occur [2]: above 10 μg/mL; CC50 at 72 h ([3]; MDCK cells): 24.9 µg/mL (≈ 86.9 µM)
Oc1cc(O)cc(/C=C/c2ccccc2)c1 [J14848, Pinosylvin]			5.28 ± 2.45 (≈ 24.9 µM)	6.65 ± 4.3 (≈ 31.3 µM)	7.54 ± 5.48 (≈ 35.5 µM)	3.23	10	18.3 (≈ 86 µM)	< 236 µM and 395 µM	2.42	3.46	concentration above which toxic effects occur [6]: above 10 μg/mL
O=C(Oc1cc(O)c2c(c1)O[C@H](c1cc(O)c(O)c(O)c1)[C@@H](O)C2)c1cc(O)c(O)c(O)c1 [J10688, Clypearin]	< 109 µM and 2.62 µM		1.2 ± 0.28 (≈ 2.62 µM)	18.1 ± 3.02 (≈ 39.4 µM)	0.75 ± 0.13 (≈ 1.64 µM)	> 11.1	100	> 200		> 267	> 167	EC50 ([8]; unidentified influenza virus, H1N1|PR/8, MDCK): < 20 µg/mL
COC(=O)c1cc(O)c(O)c(O)c1 [Methyl gallate]			> 30	> 30	> 30		30		< 272 µM			CC50 at 72 h [3]: 69.5 µg/mL (≈ 377 µM)
Hispidulin [J20353]		30										IC50 ([1]; Kinase-Glo assay): lower than 50 μg/mL; CC50 (50% cytotoxic concentration) ([2]; 72 h, MTT): 60.35 µg/mL; Post-Treatment Assay EC50 [9]: >30 µg/mL; Pre-Treatment Assay EC50 [9]: 18.89 ± 5.1 µg/mL; Simultaneous Treatment Assay EC50 [9]: 5.26 ± 2.48 µg/mL
O=C(O[C@@H]1O[C@@H]2COC(=O)c3cc(O)c(O)c(O)c3-c3c(cc(O)c(O)c3O)C(=O)O[C@H]([C@H]1O)[C@@H]2O)c1cc(O)c(O)c(O)c1 [J12098, Corilagin]			2 ± 2.22 (≈ 3.15 µM)	5.91 ± 1.44 (≈ 9.32 µM)	3.99 ± 3.72 (≈ 6.29 µM)	26	30	154 (≈ 242 µM)	< 78.8 µM and 0.599 µM	38.5	76.8	EC50 ([8]; MDCK): < 20 µg/mL
CCCOC(=O)c1cc(O)c(O)c(O)c1 [J25986, Propyl gallate]	< 236 µM	30	12.9 ± 8.06 (≈ 60.7 µM)	3.42 ± 0.2 (≈ 16.1 µM)	15.9 ± 6.94 (≈ 75.1 µM)	53.2				11.4	14.1	CC50 at 72 h ([3]; MDCK cells): 182 µg/mL (≈ 858 µM)
CCN1/C(=C/C(C)=O)Sc2ccc(OC)cc21 [TG003, reference compound]												IC50 [10]: […]; Post-Treatment Assay EC50 ([9]; H1N1 (MOI 0.01) incubated with MDCK cells 2 h, then compound, 24 h, mean ± SD): 3.56 ± 1.47 µg/mL; Pre-Treatment Assay EC50 ([9]; H1N1 (MOI 0.01) pre-incubated with compound 2 h at 37 °C before addition to MDCK cells, 24 h, mean ± SD): 5.09 ± 0.78 µg/mL; Simultaneous Treatment Assay EC50 ([9]; compound added along with H1N1 (MOI 0.01) to MDCK cells, 24 h, mean ± SD): 15.75 ± 3.49 µg/mL
O=c1cc(-c2ccccc2)oc2c(O)c(O)cc(O)c12 [J21548, Norwogonin]			> 30	> 30	> 30		30	91.8 (≈ 340 µM)	< 185 µM			
